Results published in patent WO2015077660A1, “Enzyme reactor system enabling enhanced enzymatic digestion, analyte solubility and improved mass spectrometric compatibility” (priority 2013, dated 2014).

Columns and labels:
trypsin = assay: Insulin digestion in immobilized enzyme reactor, buffer screening (Table 7); type: biochemical, porcine; settings: IMER, 70°C, 60 s
porcine trypsin = system: T1, porcine trypsin; assay: Insulin digestion by trypsin in solution, buffer screening (Table 9); type: biochemical; settings: 37°C, 18 h
T1 construct: purchased

## CO [MeOH, methanol]
trypsin; 5%
  Digested: 1511720
  Peptide: 627591
  Undigested: 2902781
trypsin; 10%
  Digested: 1001203
  Peptide: 417070
  Undigested: 3946896
trypsin; 15%
  Digested: 675569
  Peptide: 277958
  Undigested: 5012221
trypsin; 20%
  Digested: 518131
  Peptide: 213935
  Undigested: 5268985
Porcine trypsin; 5%
  Digested: 1415794
  Peptide: 576911
  Undigested: 5318134
Porcine trypsin; 10%
  Digested: 216568
  Peptide: 88569
  Undigested: 4800365
Porcine trypsin; 15%
  Digested: 1700395
  Peptide: 666807
  Undigested: 4218905
Porcine trypsin; 20%
  Digested: 1986863
  Peptide: 756073
  Undigested: 3394642

## OCC(F)(F)F [TFE]
trypsin; 5%
  Digested: 513982
  Peptide: 208344
  Undigested: 4502764
trypsin; 10%
  Digested: 95904
  Peptide: 39996
  Undigested: 5112793
trypsin; 15%
  Digested: 40955
  Peptide: 18047
  Undigested: 5055881
trypsin; 20%
  Digested: 26014
  Peptide: 9756
  Undigested: 5626809
Porcine trypsin; 5%
  Digested: 710737
  Peptide: 271046
  Undigested: 4417966
Porcine trypsin; 10%
  Digested: 512715
  Peptide: 201962
  Undigested: 4499811
Porcine trypsin; 15%
  Digested: 571716
  Peptide: 224520
  Undigested: 4785656
Porcine trypsin; 20%
  Digested: 661078
  Peptide: 253234
  Undigested: 4907160

## CC#N [ACN, acetonitrile]
trypsin; 5%
  Digested: 1344796
  Peptide: 568057
  Undigested: 3327305
trypsin; 10%
  Digested: 719966
  Peptide: 309638
  Undigested: 4860471
trypsin; 15%
  Digested: 292205
  Peptide: 116402
  Undigested: 5326017
trypsin; 20%
  Digested: 194140
  Peptide: 86754
  Undigested: 6433237
Porcine trypsin; 5%
  Digested: 1409360
  Peptide: 625535
  Undigested: 5143004
Porcine trypsin; 10%
  Digested: 1676314
  Peptide: 692364
  Undigested: 4742266
Porcine trypsin; 15%
  Digested: 1925305
  Peptide: 779339
  Undigested: 2715010
Porcine trypsin; 20%
  Digested: 2507679
  Peptide: 1020020
  Undigested: 3445401

## O=S(=O)(O)CCN1CCN(CCO)CC1 [HEPES]
trypsin; 50 mM
  Digested: 2438065
  Peptide: 1040553
  Undigested: 1152957
Porcine trypsin; 50 mM
  Digested: 1758816
  Peptide: 758959
  Undigested: 2816170

## [Cl-].[Na+] [NaCl]
trypsin; 0.1M
  Digested: 2262987
  Peptide: 925368
  Undigested: 1557233
trypsin; 0.25M
  Digested: 2119184
  Peptide: 866812
  Undigested: 2102900
trypsin; 0.5M
  Digested: 2146822
  Peptide: 862093
  Undigested: 1679944
trypsin; 1M
  Digested: 2363025
  Peptide: 944511
  Undigested: 1205692
trypsin; 2M
  Digested: 2660004
  Peptide: 966823
  Undigested: 332026
Porcine trypsin; 0.1M
  Digested: 1527956
  Peptide: 648564
  Undigested: 3295178
Porcine trypsin; 0.25M
  Digested: 1178089
  Peptide: 484049
  Undigested: 3432057
Porcine trypsin; 0.5M
  Digested: 884946
  Peptide: 350436
  Undigested: 4517343
Porcine trypsin; 1M
  Digested: 670170
  Peptide: 249834
  Undigested: 4981512
Porcine trypsin; 2M
  Digested: 378641
  Peptide: 111600
  Undigested: 4745627

## NC(N)=O [Urea]
trypsin; 0.5M
  Digested: 1816572
  Peptide: 715848
  Undigested: 2285541
trypsin; 1M
  Digested: 1448998
  Peptide: 555954
  Undigested: 2812910
trypsin; 2M
  Digested: 905391
  Peptide: 349854
  Undigested: 3812799
trypsin; 4M
  Digested: 285873
  Peptide: 104200
  Undigested: 4609299
trypsin; 6M
  Digested: 139668
  Peptide: 49088
  Undigested: 4675789
trypsin; 8M
  Digested: 43865
  Peptide: 13979
  Undigested: 4151508
Porcine trypsin; 0.5M
  Digested: 1220686
  Peptide: 538728
  Undigested: 3763696
Porcine trypsin; 1M
  Digested: 1145096
  Peptide: 511139
  Undigested: 2972094
Porcine trypsin; 2M
  Digested: 1106227
  Peptide: 490181
  Undigested: 3034093
Porcine trypsin; 4M
  Digested: 860501
  Peptide: 389932
  Undigested: 2877527
Porcine trypsin; 6M
  Digested: 529552
  Peptide: 301136
  Undigested: 3250299
Porcine trypsin; 8M
  Digested: 156492
  Peptide: 69027
  Undigested: 2197015

## C[S+](C)[O-] [DMSO, dimethylsulfoxide]
trypsin; 5%
  Digested: 1804007
  Peptide: 719810
  Undigested: 2280353
trypsin; 10%
  Digested: 1483343
  Peptide: 618353
  Undigested: 2811668
trypsin; 15%
  Digested: 1058609
  Peptide: 437967
  Undigested: 3394971
trypsin; 20%
  Digested: 722730
  Peptide: 296540
  Undigested: 3631216
Porcine trypsin; 5%
  Digested: 1193067
  Peptide: 499051
  Undigested: 3219771
Porcine trypsin; 10%
  Digested: 1185116
  Peptide: 442885
  Undigested: 3803031
Porcine trypsin; 15%
  Digested: 1233021
  Peptide: 481657
  Undigested: 4423224
Porcine trypsin; 20%
  Digested: 1215388
  Peptide: 467559
  Undigested: 4523186

## NC(CO)(CO)CO [Tris]
trypsin; 0.05M
  Digested: 2479332
  Undigested: 893529
trypsin; 0.1M
  Digested: 2540889
  Undigested: 990996
trypsin; 0.25M
  Digested: 2440181
  Undigested: 1291934
trypsin; 0.5M
  Digested: 2205308
  Peptide: 879474
  Undigested: 1490447
trypsin; 1M
  Digested: 1923103
  Peptide: 745060
  Undigested: 2177969
Porcine trypsin; 0.05M
  Digested: 1995427
  Peptide: 860551
  Undigested: 3125626
Porcine trypsin; 0.1M
  Digested: 2524942
  Peptide: 1101647
  Undigested: 2122289
Porcine trypsin; 0.25M
  Digested: 3462464
  Peptide: 1564913
  Undigested: 997441
Porcine trypsin; 0.5M
  Digested: 3218135
  Peptide: 1297337
  Undigested: 780101
Porcine trypsin; 1M
  Digested: 3458079
  Peptide: 1431917
  Undigested: 1156801
